Read-outs that look alike come from different tables or passages of the source.
What was measured:
[1] = biological target: glucosylceramide synthase (GCS) (Homo sapiens (Human), UniProt Q16739); assay: Inhibitory activity against GCS (A549 cell lysate enzyme reaction, HPLC fluorescence); assay type: biochemical; settings: NBD C6-ceramide and UDP-glucose, 37° C. for 90 minutes
Method: Ibiglustat, known as a GCS inhibitor, was used as a control.
After the cells attached to the culture dish were washed with phosphate buffered saline (PBS), the cells were scraped off with a cell scraper and then centrifuged (4000 rpm, 3 min, 4° C.) to collect the cells in a 50 ml tube. The cell pellets were suspended in a lysis buffer (50 mM HEPES, pH 7.3, containing 1× the protease/phosphatase inhibitor cocktail), lysed by sonication, and then the lysate was centrifuged (13000 rpm, 10 min, 4° C.). The obtained supernatant was used for the quantitative analysis of proteins. The amount of proteins was measured using the BCA protein assay kit, using bovine serum albumin as a standard.
Enzymatic reactions were initiated by sequentially adding the following reaction materials to a 96 deep-well plate. Thereafter, the enzymatic reactions were performed at 37° C. for 90 minutes.
The enzymatic reactions were stopped by adding 100 μl of chloroform/methanol (2:1, v/v). […] The lower layer (50 μl) was transferred to a new 96 deep-well plate and dried with a reduced concentrator.

[2] = system: GM1 production in Jurkat cells; assay: cells; assay type: cell-based

Work on “(S)-quinuclidin-3-yl (2,2-dimethyl-(2,4,5-trifluorophenyl)-2,3-dihydro-1H-inden-1-yl)carbamate [Example 68]” yielded an IC50 [1] of 15.2 nM and an IC50 ([2]; read-out: IC50) of 91.8 nM.

Work on `COc1ccc(-c2cc3c(cc2F)C(NC(=O)O[C@@H]2CN4CCC2CC4)C(C)(C)C3)c(F)c1` (stereo partly drawn) [Example 360, (S)-quinuclidin-3-yl (6-fluoro-5-(2-fluoro-4-methoxyphenyl)-2,2-dimethyl-2,3-dihydro-1H-inden-1-yl)carbamate] yielded an IC50 ([2]; Homo sapiens, Jurkat, 72 h) of 39 nM.

Work on `CC(C)COc1ccc(-c2ccc3c(c2)CC(C)(C)C3NC(=O)O[C@@H]2CN3CCC2CC3)cc1` (stereo partly drawn) [Example 136, (S)-quinuclidin-3-yl (5-(4-isobutoxyphenyl)-2,2-dimethyl-2,3-dihydro-1H-inden-1-yl)carbamate] yielded an IC50 ([2]; Homo sapiens, Jurkat, 72 h) of 1.7 nM.

For `CN(C)c1cccc(-c2ccc3c(c2)CC(C)(C)C3NC(=O)O[C@@H]2CN3CCC2CC3)c1` (stereo partly drawn) [Example 106, (S)-quinuclidin-3-yl (5-(3-(dimethylamino)phenyl)-2,2-dimethyl-2,3-dihydro-1H-inden-1-yl)carbamate], the IC50 ([2]; Homo sapiens, Jurkat, 72 h) was 5.8 nM.

In the case of `CC(C)(C)c1cccc(-c2cc3c(cc2F)C(NC(=O)O[C@@H]2CN4CCC2CC4)C(C)(C)C3)c1` (stereo partly drawn) [Example 374, (S)-quinuclidin-3-yl (5-(3-(tert-butyl)phenyl)-6-fluoro-2,2-dimethyl-2,3-dihydro-1H-inden-1-yl)carbamate], the IC50 ([2]; Homo sapiens, Jurkat, 72 h) is reported as 26.5 nM.
